From US12281079B2, “Quinoline derivatives, processes for their preparation and uses thereof for the treatment of cancer” (Lead Discovery Center GmbH, priority 2019, dated 2025)

Assays:
[1] = target: mitochondrial RNA polymerase (POLRMT) (Mus musculus, UniProt Q8BKF1); experiment: Homogeneous TR-FRET assay for mitochondrial transcription activity; format: biochemical; settings: homogeneous TR-FRET assay according to Example 4
From the text: The TR-FRET assay was basically conducted as described in WO2016/193231A1, especially as described in example 1 (hereby incorporated by reference). With respect to the back ground of the mitochondrial transcription it is referred to Falkenberg et al. (2002) and Posse et al. (Posse et al., 2015). The method monitors the activity of mitochondrial RNA-polymerase via detection of the formation of its product, a 407 bp long RNA sequence. Detection of the product is facilitated by hybridization of two DNA-oligonucleotide probes to specific and adjacent sequences within the RNA product sequence. Upon annealing of the probes, two fluorophores that are coupled directly to an acceptor nucleotide probe (ATT0647, 5′) or introduced via a coupled streptavidin interacting with a biotinylated donor nucleotide probe on the other side (Europium cryptate, 3′) are brought into sufficient proximity to serve as a fluorescence-donor-acceptor pair as generally described in Walters and Namchuk (2003). Thus, a FRET signal at 665 nm is generated upon excitation at 340 nm.
Briefly, the protocol described here was applied for screening and activity determination in a low-volume 384-well microtiter plate with non-binding surface. For high-throughput application in the 1536-well microtiter plate format, volumes of the reagent mixes were adjusted, maintaining the volumetric ratio. Proteins POLRMT (NM_172551.3), TFAM (NM_009360.4) and TFB2M (NM_008249.4) were diluted from their stocks to working concentrations of 150 nM, 1.8 μM and 330 nM respectively, in a dilution buffer containing 100 mM Tris-HCl pH 8.0, 200 mM NaCl, 10% (v/v) glycerole, 2 mM glutathione (GSH), 0.5 mM EDTA and 0.1 mg/mL BSA. Protein dilutions and template DNA, comprising a pUC18 plasmid encoding the mitochondrial light strand promoter, restriction linearized proximal to the promoter 3′-end (pUC-LSP), were mixed at the twofold final assay-concentration in a reaction buffer, containing 10 mM Tris-HCl pH 7.5, 10 mM MgCl2, 40 mM NaCl, 2 mM GSH, 0.01% (w/v) Tween-20 and 0.1 mg/mL BSA.
5 μL of this mix were dispensed, depending on the chosen microtiter plate format, using multi-channel pipettes or a Multidrop® dispenser (Thermo Fisher Scientific, Waltham Mass.) into the wells of a microtiter plate and incubated at room temperature (rt) for 10 min. Chemical compounds under scrutiny in the assay were applied using contact-free acoustic droplet-dispensing (Echo520® Labcyte Inc., Sunnyvale Calif.) from 10 mM compound stocks in 100% DMSO, to a final concentration of 10 μM or in serial dilution series of the required concentration range. Equal amounts of DMSO without any compound were added to positive control samples, followed by an incubation step at rt for 10 min.
The enzymatic reaction was started by the addition of 5 μL of a mix of dNTPs in reaction buffer to a final concentration of 500 μM each. No nucleotide mix was added to negative control samples. The content of the wells was mixed using a VarioTeleshaker™ (Thermo Fisher Scientific, Waltham Mass.) at 1500 rpm for 45 sec after which the microtiter plate was centrifuged at 500×g for 1 min. The samples were incubated for 2 h at rt with humidity control to avoid evaporation. The detection reagents were prepared in a buffer that was composed, such that the enzymatic reaction was terminated due to chelating of Mg-ions and increased ionic strength, containing 50 mM Tris-HCl pH 7.5, 700 mM NaCl, 20 mM EDTA, and 0.01% (w/v) Tween-20. Importantly Eu-cryptate-coupled streptavidin had to be preincubated with a 100-fold molar excess of a random sequence oligonucleotide for 10 min at rt in the dark to block unspecific binding of single stranded RNA to the protein. Subsequently, the blocked streptavidin(-Eu) was mixed with the DNA-probes on ice and kept away from light until use. […]

[2] = system: mitochondrial transcription (7S RNA) in HeLa cells; experiment: Quantitative real time-PCR assay of inhibition of mitochondrial transcription (7S RNA) in HeLa cells; format: cell-based; settings: Homo sapiens, 4 h compound incubation, according to Example 5, read-out: cellular qPCR assay
Procedure: Quantitative real-time PCR (qRT-PCR), based on the TaqMan™ (Thermo Fisher Scientific, Waltham Mass.) technology, was carried out essentially as described in Held et al. (1996). HeLa cells were plated one day before compound treatment in RPMI medium supplemented with 10% Fetal Calf Serum and 2 mM L-glutamine. Cells were incubated with dilution series of compounds or vehicle (DMSO) for 4 h, prior to harvest and extraction of the RNA using the RNeasy Mini Kit (Qiagen, Hilden D), according to the manufacturer's instructions. RNA concentrations were measured spectroscopically, using a NanoDrop-2000 (Thermo Fisher Scientific, Waltham Mass.) and normalized prior to cDNA synthesis, using a ‘High-Capacity cDNA Reverse Transcription Kit’ (Thermo Fisher Scientific, Waltham Mass.). qRT-PCR was carried out using the ‘TaqMan Fast Advance Master Mix’ (Thermo Fisher Scientific, Waltham Mass.) on a 7500 Fast Real-Time PCR machine (Applied Biosystems, Foster City Calif.)
For these measurements, three genes were used to compare the effect of the scrutinized compounds in relation to their concentration. The POLRMT-gene was used to detect potential influences on nuclear transcription. Mitochondrial transcription in vivo was monitored by measurements 7S RNA. The TBP (TATA-box binding protein) gene was employed as the control (housekeeping gene) during qRT-PCR. The short-lived mitochondrial 7S RNA, which is not post-transcriptionally stabilized, allowed us to monitor rapid changes in mitochondrial transcription activity following compound addition. Biological triplicates were analyzed using the comparative CT Method (ΔΔCt) method (Bubner and Baldwin, 2004) and reported as Rq % values (Rq=Relative quantification=2−ΔΔCt).

Chain of mitochondrial RNA polymerase (POLRMT) (Q8BKF1 42-1207): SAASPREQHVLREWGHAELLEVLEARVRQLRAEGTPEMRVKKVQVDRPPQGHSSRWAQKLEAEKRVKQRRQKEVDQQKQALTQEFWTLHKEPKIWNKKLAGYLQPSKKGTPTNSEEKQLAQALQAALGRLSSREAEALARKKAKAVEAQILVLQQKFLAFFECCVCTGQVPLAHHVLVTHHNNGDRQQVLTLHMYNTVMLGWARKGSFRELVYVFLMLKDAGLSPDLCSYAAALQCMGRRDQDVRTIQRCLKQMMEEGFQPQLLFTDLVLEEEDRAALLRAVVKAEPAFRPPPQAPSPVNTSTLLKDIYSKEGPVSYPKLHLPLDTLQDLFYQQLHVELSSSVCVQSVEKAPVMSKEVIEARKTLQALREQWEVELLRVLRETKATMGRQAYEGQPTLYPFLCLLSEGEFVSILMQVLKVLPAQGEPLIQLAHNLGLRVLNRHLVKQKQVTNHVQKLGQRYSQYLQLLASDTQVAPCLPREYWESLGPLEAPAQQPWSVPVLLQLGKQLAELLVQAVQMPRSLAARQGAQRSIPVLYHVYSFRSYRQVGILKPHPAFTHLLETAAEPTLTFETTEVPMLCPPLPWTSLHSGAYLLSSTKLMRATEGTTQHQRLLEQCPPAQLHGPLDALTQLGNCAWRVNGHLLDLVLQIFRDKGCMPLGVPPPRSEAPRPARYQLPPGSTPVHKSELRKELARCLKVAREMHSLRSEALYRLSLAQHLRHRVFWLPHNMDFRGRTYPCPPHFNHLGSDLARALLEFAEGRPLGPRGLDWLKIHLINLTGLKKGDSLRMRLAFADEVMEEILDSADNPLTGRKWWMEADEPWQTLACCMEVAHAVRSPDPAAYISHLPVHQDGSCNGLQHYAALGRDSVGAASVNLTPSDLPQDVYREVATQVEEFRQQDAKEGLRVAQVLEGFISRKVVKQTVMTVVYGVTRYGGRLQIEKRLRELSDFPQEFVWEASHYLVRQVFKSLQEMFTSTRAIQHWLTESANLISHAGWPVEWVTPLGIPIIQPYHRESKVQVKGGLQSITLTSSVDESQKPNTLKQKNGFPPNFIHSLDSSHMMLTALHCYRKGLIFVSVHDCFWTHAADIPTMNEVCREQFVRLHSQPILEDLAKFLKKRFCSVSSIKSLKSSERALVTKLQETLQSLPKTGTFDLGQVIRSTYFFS

| SMILES | IC50 [1] [nM] | IC50 [2] [nM] |
| --- | --- | --- |
| C[C@@H](Oc1ccc2c(-c3ccc(F)cc3Cl)ccnc2c1)C(=O)N1CCCC(S(N)(=O)=O)C1 (mixture of isomers) [Compound 33, 1-[rac-(2R)-2-[[4-(2-chloro-4-fluoro-phenyl)-7-quinolyl]oxy]propanoyl]piperidine-3-sulfonamide] | 100 to 1000 | < 10 |
| CC(Oc1ccc2c(-c3ccc(F)cc3Cl)ccnc2n1)C(=O)N1CCC[C@H](C(=O)O)C1 (mixture of isomers) [Compound 62, (3S)-1-[2-[[5-(2-chloro-4-fluoro-phenyl)-1,8-naphthyridin-2-yl]oxy]propanoyl]piperidine-3-carboxylic acid] | 100 to 1000 | 10 to 50 |
| CC(Oc1ccc2c(-c3ccc(F)cc3Cl)ccnc2n1)C(=O)N1CCC[C@H](CC(=O)O)C1 (mixture of isomers) [Compound 80, 2-[rac-(3R)-1-[2-[[5-(2-chloro-4-fluoro-phenyl)-1,8-naphthyridin-2-yl]oxy]propanoyl]-3-piperidyl]acetic acid] | 1000 to 10000 | 50 to 500 |
| Cc1cccc(C)c1-c1ccnc2cc(O[C@H](C)C(=O)N3CCCC(S(N)(=O)=O)C3)ccc12 (mixture of isomers) [Compound 119, 1-[rac-(2R)-2-[[4-(2,6-dimethylphenyl)-7-quinolyl]oxy]propanoyl]piperidine-3-sulfonamide] | < 20 | < 10 |
| C[C@@H](Oc1ccc2c(-c3ccc(F)cc3Cl)ccnc2c1)C(=O)N1CCCC(CS(N)(=O)=O)C1 (mixture of isomers) [Compound 123, [1-[rac-(2R)-2-[[4-(2-chloro-4-fluoro-phenyl)-7-quinolyl]oxy]propanoyl]-3-piperidyl]methanesulfonamide] | 100 to 1000 | 50 to 500 |
| Cc1cccc(C)c1-c1ccnc2cc(O[C@H](C)C(=O)N3CCC[C@@H](S(N)(=O)=O)C3)ccc12 [Compound 172, (3R)-1-[(2R)-2-[[4-(2,6-dimethylphenyl)-7-quinolyl]oxy]propanoyl]piperidine-3-sulfonamide] | < 20 |  |

Further lines, results first:

| IC50 [1] [nM] | IC50 [2] [nM] | SMILES |
| --- | --- | --- |
| < 20 | < 10 | Cc1cc(F)cc(C)c1-c1ccnc2cc(O[C@H](C)C(=O)N3CCCC4(CC4C(=O)O)C3)ccc12 (mixture of isomers) [Compound 174, 5-[rac-(2R)-2-[[4-(4-fluoro-2,6-dimethyl-phenyl)-7-quinolyl]oxy]propanoyl]-5-azaspiro[2.5]octane-2-carboxylic acid] |
| 20 to 100 | 10 to 50 | C[C@@H](Oc1ccc2c(-c3c(Cl)cc(F)cc3Cl)ccnc2c1)C(=O)N1CCCC(C2(C(=O)O)CC2)C1 (mixture of isomers) [Compound 196, 1-[1-[rac-(2R)-2-[[4-(2,6-dichloro-4-fluoro-phenyl)-7-quinolyl]oxy]propanoyl]-3-piperidyl]cyclopropanecarboxylic acid] |
| < 20 | < 10 | C[C@@H](Oc1ccc2c(-c3c(Cl)cc(F)cc3Cl)ccnc2c1)C(=O)N1CCCC2(CC2C(=O)O)C1 (mixture of isomers) [Compound 177, 5-[rac-(2R)-2-[[4-(2,6-dichloro-4-fluoro-phenyl)-7-quinolyl]oxy]propanoyl]-5-azaspiro[2.5]octane-2-carboxylic acid] |
| < 20 | < 10 | Cc1cc(F)cc(C)c1-c1ccnc2cc(O[C@H](C)C(=O)N3CCCC(C4(O)CC4)C3)ccc12 (mixture of isomers) [Compound 180, rac-(2R)-2-[[4-(4-fluoro-2,6-dimethyl-phenyl)-7-quinolyl]oxy]-1-[3-(1-hydroxycyclopropyl)-1-piperidyl]propan-1-one] |
| 1000 to 10000 |  | C[C@@H](Oc1ccc2c(-c3ccc(F)cc3Cl)ccnc2c1)C(=O)N1C[C@H]2C[C@@H]1CN2 [Compound 217, (2R)-2-[[4-(2-chloro-4-fluoro-phenyl)-7-quinolyl]oxy]-1-[(1R)-2,5-diazabicyclo[2.2.1]heptan-2-yl]propan-1-one] |
| 1000 to 10000 |  | C[C@@H](Oc1ccc2c(-c3ccc(F)cc3Cl)ccnc2c1)C(=O)N1CC2(COC2)C1 [Compound 218, (2R)-2-[[4-(2-chloro-4-fluoro-phenyl)-7-quinolyl]oxy]-1-(2-oxa-6-azaspiro[3.3]heptan-6-yl)propan-1-one] |
